These results are taken from patent US11168073B2, “3,3-difluoroallylamines or salts thereof and pharmaceutical compositions comprising the same” (YUHAN CORPORATION, priority 2018, dated 2021).

Holding throughout (format): biochemical
Assay [1] addresses T1, recombinant human MAO-A (monoamine oxidase-A) (Homo sapiens, UniProt P21397).
T1 construct: purchased Sigma-Aldrich
T1 sequence (P21397 1-527): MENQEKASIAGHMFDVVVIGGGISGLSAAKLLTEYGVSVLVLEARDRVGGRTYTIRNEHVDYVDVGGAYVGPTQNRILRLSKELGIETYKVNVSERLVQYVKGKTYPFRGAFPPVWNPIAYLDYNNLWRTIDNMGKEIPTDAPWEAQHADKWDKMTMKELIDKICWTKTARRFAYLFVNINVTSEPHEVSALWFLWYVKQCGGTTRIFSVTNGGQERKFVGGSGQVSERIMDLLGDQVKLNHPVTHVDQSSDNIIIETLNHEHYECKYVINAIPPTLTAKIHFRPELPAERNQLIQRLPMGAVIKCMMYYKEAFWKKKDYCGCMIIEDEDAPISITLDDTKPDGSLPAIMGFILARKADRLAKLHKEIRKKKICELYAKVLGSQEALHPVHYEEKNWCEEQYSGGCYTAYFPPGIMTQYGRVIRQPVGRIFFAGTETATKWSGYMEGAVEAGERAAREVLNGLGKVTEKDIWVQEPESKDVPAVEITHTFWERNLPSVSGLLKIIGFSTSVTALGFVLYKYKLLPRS
Briefly: Activity evaluation on recombinant human MAO-A (Amplex Red/HRP-coupled assay, 0.5 mM tyramine substrate). Conditions: read-out: Inhibitory Activity (IC50, nM) MAO-A. In short, it runs like this:
(§1)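 8-pt 1:3 dilution series, final DMSO <1%; 30 min 37 °C preincubation w/ enzyme, 50 mM Na phosphate pH 7.4; + 200 uM Amplex Red, 1 U/mL HRP, substrate (MAO-A tyramine 0.5 mM; MAO-B benzylamine 1 mM; DAO putrescine 1 mM); fluor. rate 544/590 nm, 1-2 h; 4-param IC50.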

Assay [2] has as its target T2, recombinant human MAO-B (monoamine oxidase-B) (Homo sapiens, UniProt P27338).
T2 construct: purchased Sigma-Aldrich
T2 sequence (P27338 1-520): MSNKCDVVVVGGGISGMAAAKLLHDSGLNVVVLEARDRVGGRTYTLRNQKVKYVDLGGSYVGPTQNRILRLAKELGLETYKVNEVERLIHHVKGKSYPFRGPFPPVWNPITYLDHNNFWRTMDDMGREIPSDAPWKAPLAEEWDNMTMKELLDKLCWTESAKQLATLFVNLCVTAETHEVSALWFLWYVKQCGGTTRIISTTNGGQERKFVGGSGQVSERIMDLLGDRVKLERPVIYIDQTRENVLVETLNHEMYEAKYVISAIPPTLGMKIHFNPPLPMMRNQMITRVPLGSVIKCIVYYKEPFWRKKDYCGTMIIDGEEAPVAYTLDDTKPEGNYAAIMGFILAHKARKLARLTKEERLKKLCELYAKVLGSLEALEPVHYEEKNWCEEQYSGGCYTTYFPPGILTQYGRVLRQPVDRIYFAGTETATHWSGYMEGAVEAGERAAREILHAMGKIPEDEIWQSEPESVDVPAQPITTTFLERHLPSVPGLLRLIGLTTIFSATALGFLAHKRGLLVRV
Briefly: Activity evaluation on recombinant human MAO-B (Amplex Red/HRP-coupled assay, 1 mM benzylamine substrate). Particulars: read-out: Inhibitory Activity (IC50, nM) MAO-B. In short, it runs like this: as §1

For assay [3], the target named is T3, recombinant human VAP-1 (Homo sapiens, UniProt Q16853).
T3 construct: purchased R&D systems
T3 sequence (Q16853 1-763): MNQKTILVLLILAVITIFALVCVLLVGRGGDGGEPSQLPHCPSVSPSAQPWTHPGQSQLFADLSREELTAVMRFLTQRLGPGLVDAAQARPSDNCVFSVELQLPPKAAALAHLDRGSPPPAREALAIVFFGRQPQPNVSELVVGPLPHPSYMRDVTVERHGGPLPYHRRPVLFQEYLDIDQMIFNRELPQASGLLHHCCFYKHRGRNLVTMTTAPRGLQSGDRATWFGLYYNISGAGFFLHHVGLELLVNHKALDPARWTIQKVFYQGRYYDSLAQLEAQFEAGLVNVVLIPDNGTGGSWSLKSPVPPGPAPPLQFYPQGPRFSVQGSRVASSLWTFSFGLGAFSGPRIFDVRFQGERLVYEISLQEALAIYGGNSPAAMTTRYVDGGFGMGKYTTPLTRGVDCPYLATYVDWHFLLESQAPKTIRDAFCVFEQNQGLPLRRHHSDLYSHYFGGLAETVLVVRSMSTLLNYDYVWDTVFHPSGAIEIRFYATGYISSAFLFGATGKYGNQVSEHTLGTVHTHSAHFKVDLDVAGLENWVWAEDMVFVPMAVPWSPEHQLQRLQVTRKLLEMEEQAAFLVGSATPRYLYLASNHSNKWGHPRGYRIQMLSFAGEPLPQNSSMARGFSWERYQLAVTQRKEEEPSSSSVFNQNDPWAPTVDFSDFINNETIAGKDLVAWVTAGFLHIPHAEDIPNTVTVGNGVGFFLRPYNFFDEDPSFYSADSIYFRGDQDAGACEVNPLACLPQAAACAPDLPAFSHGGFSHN
Briefly: Activity evaluation on recombinant human VAP-1 (Amplex Red/HRP-coupled hydrogen peroxide assay, benzylamine substrate). Conditions: read-out: Inhibitory Activity (IC50, nM) human VAP-1. The method in brief:
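Hydrogen peroxide from benzylamine (1 mM) oxidation by human recombinant VAP-1 detected via HRP-coupled Amplex Red (200 uM) fluorescence, kinetic over 1–2 h. Enzyme and compound preincubated 30 min at 37 °C, pH 7.4 phosphate; 8-point dose response, signal-rate decrease versus DMSO control fitted to four-parameter logistic for IC50.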

Assay [4] concerns the target T4, recombinant human DAO (diamine oxidase) (Homo sapiens, UniProt P19801).
T4 construct: purchased R&D systems
T4 sequence (P19801 20-751): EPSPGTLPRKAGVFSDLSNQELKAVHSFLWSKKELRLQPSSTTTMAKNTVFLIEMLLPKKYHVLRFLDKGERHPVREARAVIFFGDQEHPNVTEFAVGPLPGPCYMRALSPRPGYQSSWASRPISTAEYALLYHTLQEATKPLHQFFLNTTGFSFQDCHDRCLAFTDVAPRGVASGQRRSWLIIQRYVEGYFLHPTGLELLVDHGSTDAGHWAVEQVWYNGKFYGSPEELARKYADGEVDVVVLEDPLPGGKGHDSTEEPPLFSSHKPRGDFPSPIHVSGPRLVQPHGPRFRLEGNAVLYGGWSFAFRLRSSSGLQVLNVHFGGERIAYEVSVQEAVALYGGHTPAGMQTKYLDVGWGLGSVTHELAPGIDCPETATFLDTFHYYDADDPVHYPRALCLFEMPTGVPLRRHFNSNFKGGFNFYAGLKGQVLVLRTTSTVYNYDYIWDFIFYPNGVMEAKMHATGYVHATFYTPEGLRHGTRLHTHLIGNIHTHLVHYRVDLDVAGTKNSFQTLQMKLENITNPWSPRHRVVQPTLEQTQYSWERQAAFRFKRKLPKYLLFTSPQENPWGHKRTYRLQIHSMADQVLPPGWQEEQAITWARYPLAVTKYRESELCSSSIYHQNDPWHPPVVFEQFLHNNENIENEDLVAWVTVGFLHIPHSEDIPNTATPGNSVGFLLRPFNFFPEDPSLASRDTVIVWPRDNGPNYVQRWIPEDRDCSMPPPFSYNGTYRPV
Briefly: Activity evaluation on recombinant human DAO (Amplex Red/HRP-coupled assay, 1 mM putrescine substrate). Particulars: read-out: Inhibitory Activity (IC50, nM) DAO. In short, it runs like this:
as §1

Where [5] appears, read: recombinant human VAP-1, benzylamine substrate.
Where [6] appears, read: recombinant human VAP-1, 30 min preincubation at 37° C., 1 mM benzylamine.

SMILES strings stand for the structures. Structures can show the parent of a compound that is named as a salt. Where two headings read alike, the source gives them in different places.

The IC50 is the concentration that gives 50% inhibition. Turning to `CS(=O)(=O)c1ccc(-c2ccccc2Cn2cnn(CC(CN)=C(F)F)c2=O)cc1` [Example 279, 2-[2-(aminomethyl)-3,3-difluoro-allyl]-4-[[2-(4-methylsulfonylphenyl)phenyl]methyl]-1,2,4-triazol-3-one Trifluoroacetate], the concentration for half-maximal inhibition (IC50) in assay [1] (0.5 mM tyramine substrate) was over 100000 nM; in assay [2] (1 mM benzylamine substrate), over 100000 nM; in assay [3] (setting [5]) it was over 100 nM; in assay [4] (1 mM putrescine substrate) it was over 100000 nM.
As for `NCC(Cn1ncn(CCc2cccs2)c1=O)=C(F)F` [Example 172, 2-[2-(aminomethyl)-3,3-difluoro-allyl]-4-[2-(2-thienyl)ethyl]-1,2,4-triazol-3-one Trifluoroacetate], the IC50 in assay [1] (0.5 mM tyramine) is over 100000 nM; in assay [2] (1 mM benzylamine) it was 61000 nM; in assay [3] (setting [6]) it was 13 nM; in assay [4] (1 mM putrescine), over 100000 nM.
With `COc1cc(-c2cnc(-n3cnn(CC(CN)=C(F)F)c3=O)c(C)c2)cc(OC)c1OC` [Example 224, 2-[2-(aminomethyl)-3,3-difluoro-allyl]-4-[3-methyl-5-(3,4,5-trimethoxyphenyl)-2-pyridyl]-1,2,4-triazol-3-one Trifluoroacetate], the IC50 in assay [1] (0.5 mM tyramine substrate) is over 100000 nM; in assay [2] (1 mM benzylamine substrate), 1900 nM; in assay [3] (setting [5]) it was 0.8 nM; in assay [4] (1 mM putrescine substrate), 5500 nM.
Take `NCC(Cn1ncn(Cc2ccc(/C=C/c3cnc4c(c3)NC(=O)CO4)s2)c1=O)=C(F)F` [Example 161, 7-[(E)-2-[5-[[1-[2-(aminomethyl)-3,3-difluoro-allyl]-5-oxo-1,2,4-triazol-4-yl]methyl]-2-thienyl]vinyl]-1H-pyrido[2,3-b][1,4]oxazin-2-one Trifluoroacetate]: the IC50 is over 100000 nM in assay [1] (0.5 mM tyramine), over 100000 nM in assay [2] (1 mM benzylamine), 0.2 nM in assay [3] (setting [6]) and 54000 nM in assay [4] (1 mM putrescine).
Regarding `NCC(Cn1ncn(Cc2ccc(OCc3ccccc3)cc2)c1=O)=C(F)F` [Example 96, 2-[2-(aminomethyl)-3,3-difluoro-allyl]-4-[(4-benzyloxyphenyl)methyl]-1,2,4-triazol-3-one Trifluoroacetate], the IC50 is over 100000 nM in assay [1] (0.5 mM tyramine), 220 nM in assay [2] (1 mM benzylamine), 13 nM in assay [3] (setting [6]) and over 100000 nM in assay [4] (1 mM putrescine).
`CCn1cc(-c2ccc(Cn3cnn(CC(CN)=C(F)F)c3=O)cc2)ccc1=O` [Example 270, 5-[4-[[1-[2-(aminomethyl)-3,3-difluoro-allyl]-5-oxo-1,2,4-triazol-4-yl]methyl]phenyl]-1-ethyl-pyridin-2-one Trifluoroacetate]: the IC50 in assay [1] (0.5 mM tyramine substrate) is over 100000 nM; in assay [2] (1 mM benzylamine substrate), over 100000 nM; in assay [3] (setting [5]) it was 0.6 nM; in assay [4] (1 mM putrescine substrate) it was over 100000 nM.
In the case of `NCC(Cn1ncn(-c2cc(-c3ccc(C(F)(F)F)nc3)ccn2)c1=O)=C(F)F` [Example 56, 2-[2-(aminomethyl)-3,3-difluoro-allyl]-4-[4-[6-(trifluoromethyl)-3-pyridyl]-2-pyridyl]-1,2,4-triazol-3-one Trifluoroacetate], the IC50 is over 100000 nM in assay [1] (0.5 mM tyramine), 79600 nM in assay [2] (1 mM benzylamine), 1.6 nM in assay [3] (setting [6]) and 75 nM in assay [4] (1 mM putrescine).
As for `Cc1c(-c2cnn(C(F)F)c2)cccc1-n1cnn(CC(CN)=C(F)F)c1=O` [Example 261, 2-[2-(aminomethyl)-3,3-difluoro-allyl]-4-[3-[1-(difluoromethyl)pyrazol-4-yl]-2-methyl-phenyl]-1,2,4-triazol-3-one Trifluoroacetate], the IC50 in assay [1] (0.5 mM tyramine substrate) is over 100000 nM; in assay [2] (1 mM benzylamine substrate), over 100000 nM; in assay [3] (setting [5]) it was 6.5 nM; in assay [4] (1 mM putrescine substrate) it was over 100000 nM.
For `CN(C)c1ccc(-c2cc(-n3cnn(CC(CN)=C(F)F)c3=O)ccn2)cn1` [Example 63, 2-[2-(aminomethyl)-3,3-difluoro-allyl]-4-[2-[6-(dimethylamino)-3-pyridyl]-4-pyridyl]-1,2,4-triazol-3-one Trifluoroacetate], the IC50 in assay [1] (0.5 mM tyramine) is over 100000 nM; in assay [2] (1 mM benzylamine) it was 16000 nM; in assay [3] (setting [6]), 0.7 nM; in assay [4] (1 mM putrescine), 110 nM.
The corresponding values for `NCC(Cn1ncn(Cc2ccc(-c3cnc4c(c3)CCCN4)s2)c1=O)=C(F)F` [Example 145, 2-[2-(aminomethyl)-3,3-difluoro-allyl]-4-[[5-(5,6,7,8-tetrahydro-1,8-naphthyridin-3-yl)-2-thienyl]methyl]-1,2,4-triazol-3-one Ditrifluoroacetate] are over 100000 nM, over 100000 nM, 0.8 nM and over 100000 nM.
Take `NCC(Cn1ncn(Cc2ccc(-c3ccc(C(=O)N4CCOCC4)cc3)s2)c1=O)=C(F)F` [Example 109, 2-[2-(aminomethyl)-3,3-difluoro-allyl]-4-[[5-(4-morpholine-4-carbonyl)phenyl]-2-thienyl]methyl]-1,2,4-triazol-3-one trifluoroacetate]: the IC50 in assay [1] (0.5 mM tyramine) is over 100000 nM; in assay [2] (1 mM benzylamine), over 100000 nM; in assay [3] (setting [6]), 1.4 nM; in assay [4] (1 mM putrescine), 84000 nM.
